Experimental data reported in ChEMBL document CHEMBL5608208, “Design, synthesis of griseofamine A derivatives and development of potent antibacterial agents against MRSA” (Eur J Med Chem, 2024).
≈ marks a conversion by molar mass, not a printed value.

Columns and labels:
Format in all cases: functional
Staphylococcus aureus [1] = assay: Antibacterial activity against Staphylococcus aureus ATCC 29213 incubated for 18 hrs by serial two-fold dilution method
[2] = tested on: Staphylococcus epidermidis; assay: Antibacterial activity against Staphylococcus epidermidis ATCC 12228 incubated for 18 hrs by serial two-fold dilution method
Staphylococcus aureus [3] = assay: Antibacterial activity against methicillin resistant Staphylococcus aureus ATCC 33592 incubated for 18 hrs by serial two-fold dilution method
Staphylococcus aureus [4] = assay: Antibacterial activity against methicillin resistant Staphylococcus aureus ATCC 43300 incubated for 18 hrs by serial two-fold dilution method

SMILES | MIC (Staphylococcus aureus [1]) [µg/mL] | MIC [2] [µg/mL] | MIC (Staphylococcus aureus [3]) [µg/mL] | MIC (Staphylococcus aureus [4]) [µg/mL]
O=C1/C(=C(/O)c2cccs2)C(=O)N2[C@H](c3ccc(-c4cc(F)cc(F)c4)cc3)c3[nH]c4ccccc4c3C[C@@H]12 | 0.25 (≈ 0.464 µM) | 0.25 (≈ 0.464 µM) | 0.25 (≈ 0.464 µM) | 0.125 (≈ 0.232 µM)
CCc1ccc(-c2ccc([C@@H]3c4[nH]c5ccccc5c4C[C@H]4C(=O)/C(=C(\C)O)C(=O)N34)cc2)cc1 | 0.5 (≈ 1.08 µM) | 0.25 (≈ 0.54 µM) | 0.25 (≈ 0.54 µM) | 0.25 (≈ 0.54 µM)
C/C(O)=C1\C(=O)[C@@H]2Cc3c([nH]c4ccccc34)[C@@H](c3ccc(C(F)(F)F)cc3)N2C1=O | 2 (≈ 4.69 µM) | – | – | –
C/C(O)=C1\C(=O)[C@@H]2Cc3c([nH]c4ccccc34)[C@@H](c3ccc(-c4cc(F)c(F)c(F)c4)cc3)N2C1=O | 0.5 (≈ 1.02 µM) | 1 (≈ 2.05 µM) | 1 (≈ 2.05 µM) | –
C/C(O)=C1\C(=O)[C@@H]2Cc3c([nH]c4ccccc34)[C@@H](c3ccccn3)N2C1=O | 64 (≈ 178 µM) | – | – | –
CCn1c2c(c3ccccc31)C[C@H]1C(=O)/C(=C(\C)O)C(=O)N1[C@@H]2c1ccc(-c2ccc(F)cc2)cc1 | 0.25 (≈ 0.52 µM) | 0.25 (≈ 0.52 µM) | 0.25 (≈ 0.52 µM) | 0.125 (≈ 0.26 µM)
O=C1/C(=C(/O)c2ccc(F)cc2)C(=O)N2[C@H](c3ccc(-c4cc(F)cc(F)c4)cc3)c3[nH]c4ccccc4c3C[C@@H]12 | 0.5 (≈ 0.908 µM) | 0.5 (≈ 0.908 µM) | 0.5 (≈ 0.908 µM) | –
Cc1ccc(C(=O)OC2=CC(=O)N3[C@H](c4ccc(-c5cc(F)cc(F)c5)cc4)c4[nH]c5ccccc5c4C[C@@H]23)cc1 | > 4 | > 4 | > 4 | –
C/C(N)=C1\C(=O)[C@@H]2Cc3c([nH]c4ccccc34)[C@@H](c3ccc(-c4ccccc4)cc3)N2C1=O | > 4 | > 4 | > 4 | –
C/C(O)=C1\C(=O)[C@@H]2Cc3c([nH]c4ccccc34)[C@@H](c3ccc(-c4cc(C(F)(F)F)cc(C(F)(F)F)c4)cc3)N2C1=O | 1 (≈ 1.75 µM) | 1 (≈ 1.75 µM) | 1 (≈ 1.75 µM) | –
O=C(OC1=CC(=O)N2[C@H](c3ccc(-c4cc(F)cc(F)c4)cc3)c3[nH]c4ccccc4c3C[C@@H]12)c1ccccc1 | > 4 | > 4 | > 4 | –
C/C(O)=C1\C(=O)[C@@H]2Cc3c([nH]c4ccccc34)[C@@H](c3ccc(-c4cccc(F)c4)cc3)N2C1=O | 0.125 (≈ 0.276 µM) | 0.25 (≈ 0.553 µM) | 0.25 (≈ 0.553 µM) | –
C/C(O)=C1\C(=O)[C@@H]2Cc3c([nH]c4ccccc34)[C@@H](c3ccc(-c4ccc(C)cc4)cc3)N2C1=O | 0.125 (≈ 0.279 µM) | 0.25 (≈ 0.557 µM) | 0.25 (≈ 0.557 µM) | 0.125 (≈ 0.279 µM)
C/C(O)=C1\C(=O)[C@@H]2Cc3c([nH]c4ccccc34)[C@H](c3ccc(C(F)(F)F)cc3)N2C1=O | 16 (≈ 37.5 µM) | – | – | –
C/C(O)=C1\C(=O)[C@@H]2Cc3c(n(C)c4ccccc34)[C@@H](c3ccc(-c4ccc(F)cc4)cc3)N2C1=O | 0.25 (≈ 0.536 µM) | 0.063 (≈ 0.135 µM) | 0.5 (≈ 1.07 µM) | –
O=C1CC(=O)N2[C@H](c3ccc(-c4cc(F)cc(F)c4)cc3)c3[nH]c4ccccc4c3C[C@@H]12 | > 4 | > 4 | 4 (≈ 9.34 µM) | –
CC[C@@H]1c2[nH]c3ccccc3c2C[C@H]2C(=O)/C(=C(\C)O)C(=O)N12 | > 128 | – | – | –
C/C(N)=C1\C(=O)[C@@H]2Cc3c([nH]c4ccccc34)[C@@H](c3ccc(-c4ccc(OC(F)(F)F)cc4)cc3)N2C1=O | 4 (≈ 7.73 µM) | 4 (≈ 7.73 µM) | 4 (≈ 7.73 µM) | –
O=C1CC(=O)N2[C@H](c3ccc(-c4ccc(OC(F)(F)F)cc4)cc3)c3[nH]c4ccccc4c3C[C@@H]12 | > 4 | > 4 | > 4 | –
C/C(O)=C1\C(=O)[C@@H]2Cc3c([nH]c4ccccc34)[C@H](c3cccc(F)c3)N2C1=O | 32 (≈ 85 µM) | – | – | –
C/C(O)=C1\C(=O)[C@@H]2Cc3c([nH]c4ccccc34)[C@@H](c3ccc(-c4ccc(F)cc4)cc3)N2C1=O | 0.063 (≈ 0.139 µM) | 0.125 (≈ 0.276 µM) | 0.125 (≈ 0.276 µM) | –
C/C(O)=C1\C(=O)[C@@H]2Cc3c([nH]c4ccccc34)[C@H](c3ccccc3)N2C1=O | 16 (≈ 44.6 µM) | – | – | –
O=C1CC(=O)N2[C@H](c3ccc(-c4ccc(F)cc4)cc3)c3[nH]c4ccccc4c3C[C@@H]12 | > 4 | > 4 | > 4 | –
C/C(O)=C1\C(=O)[C@@H]2Cc3c([nH]c4ccccc34)[C@@H](c3cccc(F)c3)N2C1=O | 8 (≈ 21.3 µM) | – | – | –
O=C(OC1=CC(=O)N2[C@H](c3ccc(-c4cc(F)cc(F)c4)cc3)c3[nH]c4ccccc4c3C[C@@H]12)c1ccc(F)cc1 | > 4 | > 4 | > 4 | –

SMILES | MIC (Staphylococcus aureus [1]) [µg/mL] | MIC [2] [µg/mL] | MIC (Staphylococcus aureus [3]) [µg/mL] | MIC (Staphylococcus aureus [4]) [µg/mL]
C/C(O)=C1\C(=O)[C@@H]2Cc3c([nH]c4ccccc34)[C@@H](c3ccc(F)cc3)N2C1=O | 4 (≈ 10.6 µM) | – | – | –
O=C1/C(=C(/O)c2ccc3ccccc3c2)C(=O)N2[C@H](c3ccc(-c4cc(F)cc(F)c4)cc3)c3[nH]c4ccccc4c3C[C@@H]12 | 4 (≈ 6.87 µM) | 2 (≈ 3.43 µM) | 2 (≈ 3.43 µM) | –
Cc1ccc(/C(O)=C2\C(=O)[C@@H]3Cc4c([nH]c5ccccc45)[C@@H](c4ccc(-c5cc(F)cc(F)c5)cc4)N3C2=O)cc1 | 0.5 (≈ 0.915 µM) | 0.25 (≈ 0.457 µM) | 0.5 (≈ 0.915 µM) | –
C/C(O)=C1\C(=O)[C@@H]2Cc3c([nH]c4ccccc34)[C@@H](C)N2C1=O | > 128 | – | – | –
C/C(O)=C1\C(=O)[C@@H]2Cc3c([nH]c4ccccc34)[C@@H](c3ccccc3)N2C1=O | 8 (≈ 22.3 µM) | – | – | –
C/C(O)=C1\C(=O)[C@@H]2Cc3c([nH]c4ccccc34)[C@@H](c3ccc(C)cc3)N2C1=O | 4 (≈ 10.7 µM) | – | – | –
C/C(O)=C1\C(=O)[C@@H]2Cc3c(n(S(=O)(=O)c4ccc(C)cc4)c4ccccc34)[C@@H](c3ccc(-c4ccc(F)cc4)cc3)N2C1=O | 2 (≈ 3.3 µM) | 0.25 (≈ 0.412 µM) | 2 (≈ 3.3 µM) | –
C/C(O)=C1\C(=O)[C@@H]2Cc3c([nH]c4ccccc34)[C@@H](c3ccc(F)cc3F)N2C1=O | 8 (≈ 20.3 µM) | – | – | –
C/C(O)=C1\C(=O)[C@@H]2Cc3c([nH]c4ccccc34)CN2C1=O | 128 (≈ 453 µM) | – | – | –
C/C(O)=C1\C(=O)[C@@H]2Cc3c([nH]c4ccccc34)[C@@H](c3ccc(C(C)(C)C)cc3)N2C1=O | 4 (≈ 9.65 µM) | – | – | –
CC(=O)OC1=CC(=O)N2[C@H](c3ccc(-c4cc(F)cc(F)c4)cc3)c3[nH]c4ccccc4c3C[C@@H]12 | > 4 | > 4 | > 4 | –
C/C(O)=C1\C(=O)[C@@H]2Cc3c([nH]c4ccccc34)[C@@H](c3ccc(-c4ccccc4C)cc3)N2C1=O | 0.125 (≈ 0.279 µM) | 0.5 (≈ 1.11 µM) | 0.25 (≈ 0.557 µM) | –
C/C(O)=C1\C(=O)[C@@H]2Cc3c([nH]c4ccccc34)[C@@H](c3ccc(-c4ccc(C(F)(F)F)cc4)cc3)N2C1=O | 0.063 (≈ 0.125 µM) | 0.063 (≈ 0.125 µM) | 0.25 (≈ 0.498 µM) | –
O=C(OC1=CC(=O)N2[C@H](c3ccc(-c4cc(F)cc(F)c4)cc3)c3[nH]c4ccccc4c3C[C@@H]12)c1cccs1 | > 4 | > 4 | > 4 | –
O=C(OC1=CC(=O)N2[C@H](c3ccc(-c4cc(F)cc(F)c4)cc3)c3[nH]c4ccccc4c3C[C@@H]12)c1ccc2ccccc2c1 | 4 (≈ 6.87 µM) | > 4 | 2 (≈ 3.43 µM) | –
CCC(=O)OC1=CC(=O)N2[C@H](c3ccc(-c4cc(F)cc(F)c4)cc3)c3[nH]c4ccccc4c3C[C@@H]12 | > 4 | > 4 | > 4 | –
C/C(O)=C1\C(=O)[C@@H]2Cc3c([nH]c4ccccc34)[C@@H](c3ccc(-c4cccc(C(F)(F)F)c4)cc3)N2C1=O | 0.5 (≈ 0.995 µM) | 0.063 (≈ 0.125 µM) | 0.5 (≈ 0.995 µM) | –
O=C1CC(=O)N2[C@H](c3ccc(-c4ccc(C(F)(F)F)cc4)cc3)c3[nH]c4ccccc4c3C[C@@H]12 | > 4 | 4 (≈ 8.69 µM) | > 4 | –
C/C(O)=C1\C(=O)[C@@H]2Cc3c([nH]c4ccccc34)[C@@H](Cc3ccccc3)N2C1=O | 32 (≈ 85.9 µM) | – | – | –
C/C(O)=C1\C(=O)[C@@H]2Cc3c(n(S(=O)(=O)c4ccc(C)cc4)c4ccccc34)[C@@H](c3ccc(-c4ccc(C)cc4)cc3)N2C1=O | 8 (≈ 13.3 µM) | 2 (≈ 3.32 µM) | 8 (≈ 13.3 µM) | –
COc1ccc([C@H]2c3[nH]c4ccccc4c3C[C@H]3C(=O)/C(=C(\C)O)C(=O)N23)cc1 | 8 (≈ 20.6 µM) | – | – | –
COC(=O)[C@@H]1Cc2c([nH]c3ccccc23)[C@@H](C)N1 | > 128 | – | – | –
COc1ccc([C@@H]2c3[nH]c4ccccc4c3C[C@H]3C(=O)/C(=C(\C)O)C(=O)N23)cc1 | 4 (≈ 10.3 µM) | – | – | –
C/C(O)=C1\C(=O)[C@@H]2Cc3c([nH]c4ccccc34)[C@@H](c3ccc4ccccc4c3)N2C1=O | 8 (≈ 19.6 µM) | – | – | –
